Experimental data: patent US20050032863A1, “Method of treating or preventing central nervous system disorders with compounds having selectivity for the alpha 3 subunit of the benzodiazepine receptor” (priority 2003, published 2005)
Where “and” joins values, the source holds several entries; their conditions need not be identical. Identical values can stand only once.

How the values were obtained:
[1] = tested on: female Wistar rats, MK-801-induced stereotypies, hyperactivity and ataxia; assay: MK-801-induced behaviour, rat model of psychosis (Example 1); type: in vivo; conditions: MK-801 0.2 mg/kg i.p.
Procedure: The behaviour induced by the NMDA antagonist MK-801 is generally accepted as a rat model of psychosis. MK-801 induces stereotypies, hyperactivity and ataxia in rats after intraperitoneal administration.
Locomotor activity of the rats is recorded by the MotiTest Apparatus (TSE, Bad Homburg, Germany). The test area consisted of a squared arena ([…] with protective plexiglass walls (20 cm of height) where rats could freely move. Horizontal movements were recorded by 32 infrared photocells arranged along the bottom of each wall of the arena. Vertical movements (rearings) were recorded by a horizontal row of 32 infrared photocells 12 cm above the floor. The following parameters are measured by the computer program “ActiMot” (TSE, Bad Homburg, Germany): • active time [s] and total distance travelled [m]
Stereotypies, divided into stereotyped sniffing and other stereotypies, and ataxia are scored by the experimenter every five minutes for one hour (12 intervals) according to the method described by Andiné et al. (1999). The scores of the 12 intervals are added for each parameter.
The day of experiment the female rats are placed in the laboratory and receive the test compound, the reference substance or vehicle at the appropriate time prior to test. MK-801 0.2 mg/kg is intraperitoneally administered 10 minutes prior to test.
At the beginning of the test the rats are placed in the centre of the squared arena of the MotiTest apparatus. Behaviour of the rats is recorded for one hour. After each run animals are removed and the boxes thoroughly cleaned and dried.

[2] = target: T1, recombinant rat α5β2γ2 GABAA receptors (Rattus norvegicus, UniProt P19969); assay: Whole-cell patch-clamp, modulation of GABA (EC20)-induced currents in transfected HEK 293 cells, α5β2γ2; type: cell-based
T1 construct: expressed in transfected cells; host or cells: HEK 293
Procedure: For electrophysiological recording HEK-293 cells were passaged and replated on 12-mm glass coverslips located in 9.6-cm plastic dishes filled with 10 ml of Minimum Essential Medium (MEM, Gibco) supplemented with 158 mg/l sodium bicarbonate, 2 mM glutamine (Gibco), 100 U/ml penicillin-streptomycin (Gibco), and 10% foetal calf serum (Gibco). Cultures were maintained at 37° C. in a humidified […]/5% CO2 atmosphere for 2-3 days.
Transfection with recombinant rat GABAA receptors was carried out as described in detail (Korpi and Lüddens, 1993, Lüddens and Korpi, 1995b). Briefly, HEK 293 cells were transfected in triple combinations using the phosphate precipitation method with rat GABAA receptor cDNAs in eukaryotic expression vectors (Pritchett, 1990) for the α, β and γ subunits. For optimal receptor expression, final concentrations (μg vector DNA per 9.6 cm tissue culture plate) were: α1, 2; α2 4.8; α3, 1.2; α4, 10; α5, 0.8; β2, 0.4; and γ2S, 0.3. The γ2S variant is abbreviated γ2 in the remainder of the text. To identify transfected cells all subunit combinations were co-transfected with 1 μg per plate of pNI-EGFP.
Two days after transfection single coverslips containing HEK 293 cells were placed in a recording chamber mounted on the movable stage of a fluorescence microscope (Olympus IX70) and perfused with a defined saline solution containing (in mM): 130 NaCl, 5.4 KCl, 2 CaCl2, 2 MgSO4, 10 glucose, 5 sucrose, and 10 HEPES (free acid), pH adjusted to 7.35 with about 35 mM NaOH. Transfected cells were identified by their green fluorescence due to the expression of the pNI-EGFP vector and ligand-mediated membrane currents of these cells were studied in the whole-cell configuration of the patch-clamp technique (Hamil et al., 1981). Patch-clamp pipettes were pulled from hard borosilicate capillary glass (0.5 mm ID, 1.5 mm OD, Vitrex, Science Products GmbH, Hofheim, Germany) using a horizontal puller (Sutter Instruments, CA, Model P-97) in a multi-stage process.
Seal resistances >1 GΩ were routinely obtained by applying gentle suction to the pipettes. Membrane rupture was monitored electrically as an increase in capacity. Pipette capacitance, membrane capacitance, and series resistance were electronically compensated to achieve minimal capacitative transients. A series resistance compensation of >60% was regularly used.
In all cells recorded the presence of the γ2 subunit in the heteropentamere was monitored by the application of 1 μM zolpidem plus the EC20 of GABA before testing the experimental drugs.
Responses of the cells were recorded by a patch-clamp amplifier (EPC-8, HEKA-Electronic, Lambrecht, Germany) in conjunction with a standard personal computer and the pClamp 8.1 software package (Axon Instruments, Foster City, Calif.). The standard holding-potential for the cells was −40 mV. Whole cell currents were low-pass filtered by an eight-pole Bessel filter at 5 or 3 kHz before being digitised by a Digidata 1322A interface (Axon Instruments, Foster City, Calif.) and recorded by the computer at a sampling rate of at least […].
Efficacy, potency, and GABAA receptor a subunit specificity of the new compound ELB139 was tested with the whole cell configuration of the patch-clamp technique by applying increasing drug concentration together with GABA of the approximate EC20 on green fluorescing cells. BZ binding site specificity of the new compound was tested on the same cells in an identical experimental setting with additionally applying 10 μM Ro15-1788.

[3] = 30 mg/kg p.o. 1 h prior to test

T1 sequence (P19969 32-464 limits assumed): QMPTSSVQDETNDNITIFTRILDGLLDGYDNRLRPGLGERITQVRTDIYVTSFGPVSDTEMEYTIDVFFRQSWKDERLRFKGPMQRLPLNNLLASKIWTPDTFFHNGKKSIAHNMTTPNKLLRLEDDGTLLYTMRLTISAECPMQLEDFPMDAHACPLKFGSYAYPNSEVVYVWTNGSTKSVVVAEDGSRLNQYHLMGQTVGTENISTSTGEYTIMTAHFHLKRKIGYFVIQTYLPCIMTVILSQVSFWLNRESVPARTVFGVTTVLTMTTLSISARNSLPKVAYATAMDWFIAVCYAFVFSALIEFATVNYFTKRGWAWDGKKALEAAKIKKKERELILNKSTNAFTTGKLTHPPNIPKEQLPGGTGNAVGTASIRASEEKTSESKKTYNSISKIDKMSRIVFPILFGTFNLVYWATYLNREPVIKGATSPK

O=C1N=C(N2CCCCC2)CN1c1ccc(Cl)cc1 [ELB139, 1-(4-chlorophenyl)-4-piperidinoimidazolin-2-one]
MK-801-induced ataxia [1, 3]: significantly reversed | MK-801-induced other stereotypies [1, 3]: significantly reversed | MK-801-induced stereotyped sniffing [1, 3]: significantly reversed | MK-801-stimulated activity [1, 3]: did not reduce | total distance travelled increased by MK-801 [1, 3]: distinctly reduced | all parameters induced by MK-801 ([1]; 60 mg/kg p.o. 1 h prior to test): significantly reduced all parameters | EC50 ([2]; applied with approximate GABA EC20, read-out: EC50 (ELB139)): 3.6 µM | effect of 10 μM Ro15-1788 on the current enhancement by the compound ([2]; co-applied 10 μM Ro15-1788 (flumazenil)): completely abolished | maximal positive modulation of GABA-induced current ([2]; maximum at 30 μM (ELB139), at 1 μM (diazepam)): 1.4±0.06 fold and 1.4 fold | Potentiation* (ELB139) ([2]; with GABA EC20, graphically determined): 1.4 ± 0.06
